Experimental data published in PubChem BioAssay AID1912 (The Scripps Research Institute Molecular Screening Center, 2009).
Calls of active or inactive are those of the source. No rule for the calls is given here.

target: Luciferin 4-monooxygenase (Photinus pyralis) (UniProt P08659); assay: native FLuc inhibition dose response – biochemical, luminescence, artefact control for HSP90 inhibitor project (AID 1912); conditions: purified firefly luciferase
Sequence (P08659 whole entry, looked up): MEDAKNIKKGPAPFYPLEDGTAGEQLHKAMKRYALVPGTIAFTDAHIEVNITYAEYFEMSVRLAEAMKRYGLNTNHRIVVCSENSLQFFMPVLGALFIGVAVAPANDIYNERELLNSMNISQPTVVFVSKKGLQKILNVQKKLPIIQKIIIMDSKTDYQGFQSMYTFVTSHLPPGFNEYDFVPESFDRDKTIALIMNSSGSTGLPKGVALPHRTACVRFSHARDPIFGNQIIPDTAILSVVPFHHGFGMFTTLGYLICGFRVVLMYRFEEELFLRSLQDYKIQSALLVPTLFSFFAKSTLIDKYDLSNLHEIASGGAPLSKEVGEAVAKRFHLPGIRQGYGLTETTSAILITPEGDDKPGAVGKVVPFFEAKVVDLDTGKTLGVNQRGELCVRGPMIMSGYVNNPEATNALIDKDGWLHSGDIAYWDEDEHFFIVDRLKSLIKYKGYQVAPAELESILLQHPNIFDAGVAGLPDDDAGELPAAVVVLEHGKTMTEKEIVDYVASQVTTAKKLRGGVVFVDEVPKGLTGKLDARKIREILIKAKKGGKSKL

Row | SMILES | IC50
1 | Cc1cc2ccccc2n1CCNC(=O)c1ccccc1 | > 60 µM (inactive)
2 | CCN(CC)c1ccc(SS(=O)(=O)O)cc1 | > 60 µM (inactive)
3 | CCc1ccc(S(=O)(=O)/N=C2\C=C(Nc3ccc(C(=O)O)cc3)C(=O)c3ccccc32)cc1 | > 60 µM (inactive)
4 | CCc1ccc(Nc2n[n+](-c3ccccc3)c(-c3ccc(N(CC)CC)cc3)s2)cc1 | > 60 µM (inactive)
5 | Cc1ccccc1NC1=C/C(=N\S(=O)(=O)c2cccs2)c2ccccc2C1=O | > 20 µM (inactive)
6 | C=CCOC(=O)c1sc(NC(=O)c2ccc(OC)cc2)nc1C | > 60 µM (inactive)
7 | CN1C(=O)S/C(=C/c2ccc(OCc3cccc(C(=O)O)c3)cc2)C1=O | > 20 µM (inactive)
8 | CCCCOc1ccc(-c2cc(C(=O)NNC(=S)NCC)c3ccccc3n2)cc1 | inactive
9 | CC(=O)Nc1ccccc1OCC(=O)c1cc(C)n(Cc2cccs2)c1C | > 60 µM (inactive)
10 | CC(C)Sc1nc(SCC(=O)NCc2ccco2)c2c3c(sc2n1)COC(C)(C)C3 | > 60 µM (inactive)
11 | O=[N+]([O-])c1ccc(S(=O)(=O)N2CCN=C2SCc2ccc(F)cc2)cc1 | > 60 µM (inactive)
12 | COC(=O)c1ccccc1OCCCOc1ccc(C=O)cc1OC | > 60 µM (inactive)
13 | Cc1ccc2oc(=O)c(/C=C(\O)c3cccs3)nc2c1 | > 60 µM (inactive)
14 | O=c1oc2ccc(Cl)cc2nc1/C=C(\O)c1ccco1 | > 60 µM (inactive)
15 | O=[N+]([O-])/C=C/c1ccc2c(ccn2Cc2ccccc2)c1 | > 60 µM (inactive)
16 | CCc1ccc(S(=O)(=O)/N=C2\C=C(Nc3ccc(O)cc3)C(=O)c3ccccc32)cc1 | > 60 µM (inactive)
17 | CCc1ccc(S(=O)(=O)/N=C2\C=C(Nc3cccc(C(=O)O)c3)C(=O)c3ccccc32)cc1 | > 60 µM (inactive)
18 | Cc1[nH]n(-c2ccccc2)c(=O)c1N=Nc1ccc(C(N)=O)cc1 | > 60 µM (inactive)
19 | Cc1ccc2oc(=O)c(/C=C(\O)c3ccco3)nc2c1 | > 60 µM (inactive)
20 | COc1ccc(-c2cc3c(=O)n(CC(=O)NCCCN4CCC(Cc5ccccc5)CC4)ncn3n2)cc1 | inactive
21 | Cc1cc(NO)nc(-c2ccc(Br)cc2)n1 | > 60 µM (inactive)
22 | Cc1c(-c2nc(-c3ccc(C(C)(C)C)cc3)no2)n(C)oc1=O | > 60 µM (inactive)
23 | Cc1oc(-c2ccc(-c3ccccc3)cc2)nc1CN(C)C1CCOC1 (stereo not given) | > 60 µM (inactive)
24 | COc1ccc(C(=O)Oc2ccc(/C=N/Nc3ccc(Cl)c(C(=O)O)c3)cc2OC)cc1 | > 60 µM (inactive)
25 | COc1cc(/C=N/Nc2ccc(Cl)c(C(=O)O)c2)ccc1OC(=O)c1ccc(F)cc1 | > 60 µM (inactive)

Row | SMILES | IC50
26 | CCOC(=O)c1csc(COc2ccc(OC)cc2)n1 | > 60 µM (inactive)
27 | COc1ccc(/C=C/c2noc(-c3ccccc3OC(C)=O)n2)cc1 | inactive
28 | O=C(O)c1cccc(NC(=S)NC(NC(=O)c2cccc([N+](=O)[O-])c2)C(Cl)(Cl)Cl)c1 (stereo not given) | > 60 µM (inactive)
29 | C#CCn1cc(/C=C2\NC(=O)NC2=O)c2ccccc21 | > 60 µM (inactive)
30 | Nc1cc(-c2ccccc2)ccc1O | > 60 µM (inactive)
31 | COC(=O)c1cc(C)nc2c1C(=O)C(=O)C=C2N1CCOCC1 | > 20 µM (inactive)
32 | CCOc1ccc(-c2nc(CN3CCCCC3CCn3cccn3)c(C)o2)cc1 (stereo not given) | > 60 µM (inactive)
33 | COC(=O)c1ccc2nc(NC(=O)C3CC3)sc2c1 | > 60 µM (inactive)
34 | CCOC(=O)c1csc(NC(=O)c2ccc3c(c2)OCCO3)n1 | > 60 µM (inactive)
35 | COc1ccc(-c2cn3c(C)c(C(=O)Nc4cccc(C)n4)sc3n2)cc1 | inactive
36 | Nc1c(-c2ccccc2)cnn1-c1ccc(C(=O)O)cc1 | inactive
37 | CCOC(=O)c1ccc(-c2ccc(C=O)o2)cc1 | > 60 µM (inactive)
38 | COc1cc(/C=N/Nc2ccc(Cl)c(C(=O)O)c2)ccc1OC(=O)c1ccccc1F | > 60 µM (inactive)
39 | O=C1c2cc(F)ccc2-n2c1nc1ccccc1c2=O | > 60 µM (inactive)
40 | Cc1cc(C)c2nc(N3CCC(C(=O)NCCCN4CC(C)CC(C)C4)CC3)sc2c1 (stereo not given) | > 60 µM (inactive)
41 | O=C(O)c1cccc(-n2c(O)c(C=C3N=c4ccccc4=N3)sc2=S)c1 | > 60 µM (inactive)
42 | O=C1C(Nc2ccccc2)=C/C(=N/S(=O)(=O)c2cccs2)c2ccccc21 | inactive
43 | Cc1ccccc1NC1=C/C(=N\S(=O)(=O)c2ccc(C(=O)O)cc2)c2ccccc2C1=O | inactive
44 | O=C(CSc1ncccc1C(=O)O)c1ccc2ccccc2c1 | inactive
45 | CC(=O)c1ccc(N=Nc2c(C)[nH]n(-c3ccccc3)c2=O)cc1 | > 60 µM (inactive)
46 | Cc1nc(CS(=O)(=O)c2ccc(Cl)cc2)sc1C(=O)O | > 60 µM (inactive)
47 | CCc1ccc(OCc2ccc(C(=O)OC)o2)cc1 | > 60 µM (inactive)
48 | COc1ccc(N(/N=C2\Sc3ccccc3C2=O)C(C)=O)cc1 | > 60 µM (inactive)
49 | COc1cc(/C=C/[N+](=O)[O-])ccc1OCc1cccc(C(=O)O)c1 | inactive
50 | [O-]/[N+](=C\c1ccco1)c1ccc(Cl)cc1 | > 60 µM (inactive)

Row | SMILES | IC50
51 | Cc1cc(NC(=O)c2coc(=O)c(Br)c2)ccc1C(C)C | > 60 µM (inactive)
52 | Cc1cc(C)c(S(=O)(=O)/N=C2\C=C(Nc3ccc(C(=O)O)cc3)C(=O)c3ccccc32)c(C)c1 | > 60 µM (inactive)
53 | COc1ccccc1Nc1nn2c(=O)c3ccc(C(=O)NCc4cccnc4)cc3nc2s1 | > 60 µM (inactive)
54 | C=CCn1c(NS(=O)(=O)c2ccccc2)c(S(=O)(=O)c2ccc(C)cc2)c2nc3ccccc3nc21 | > 60 µM (inactive)
55 | Cc1ccc(/C=C2/C(=O)c3ccc(C(=O)O)cc3C2=O)o1 | > 60 µM (inactive)
56 | Cc1ccc(/C=C2\SC(=S)N(CCCC(=O)Nc3ccccn3)C2=O)cc1 | > 60 µM (inactive)
57 | CC(C)(C)c1ccc(C(=O)c2c[nH]c(C(=O)O)c2)cc1 | inactive
58 | COc1cc(N2Cc3ccccc3C2)ccc1C=O | > 60 µM (inactive)
59 | CC1=NN(c2ccccc2)C(=O)/C1=C\N(O)c1ccccc1 | > 60 µM (inactive)
60 | COC(=O)c1ccc(COc2ccc3c(c2)CCC3)o1 | > 60 µM (inactive)
61 | Cc1cccc(N(O)C(=O)Nc2cccc(Cl)c2)c1 | > 60 µM (inactive)
62 | Cc1cc2ccccc2n1CCNC(=O)c1cccs1 | > 60 µM (inactive)
63 | CC(=O)CSc1ccc(-c2nc3ccccc3[nH]2)cn1 | > 60 µM (inactive)
64 | COC(=O)c1ccccc1NC1=C/C(=N\S(=O)(=O)c2ccc(C(=O)O)cc2)c2ccccc2C1=O | > 60 µM (inactive)
65 | O=C(O)c1cc(N/N=C/c2c[nH]c3ccccc23)ccc1Cl | > 60 µM (inactive)
66 | Cc1nc2ccc(C(=O)O)cc2[nH]1 | > 60 µM (inactive)
67 | O=C(CN1C(=O)c2ccccc2S1(=O)=O)c1ccc2c(c1)OCCCO2 | inactive
68 | Cc1ccc(C(=O)CSc2ccccc2C(=O)O)cc1 | inactive
69 | CS(=O)(=O)c1ccc(-c2cn3cc(C(=O)O)ccc3n2)cc1 | inactive
70 | CCOc1ccc(-c2nc(CN(Cc3ccccc3)C[C@@H]3CCC(=O)N3)c(C)o2)cc1 | > 60 µM (inactive)
71 | O=C(O)c1cc(N/N=C/c2cccnc2)ccc1Cl | > 60 µM (inactive)
72 | COC(=O)NCCOC(=O)N(O)c1ccc(Br)cc1 | > 60 µM (inactive)
73 | COC(=O)c1ccccc1OCCCOc1ccc(C)cc1OC | > 60 µM (inactive)
74 | O=C1C(Nc2ccc(O)cc2)=C/C(=N/S(=O)(=O)c2cccs2)c2ccccc21 | inactive
75 | CCN(CC)c1ccc2cc(NC(=O)CCC(=O)O)c(=O)oc2c1 | > 60 µM (inactive)

Row | SMILES | IC50
76 | O=C(CN1C(=O)c2ccccc2S1(=O)=O)c1ccc2c(c1)OCCO2 | > 60 µM (inactive)
77 | Cc1ccc(S(=O)(=O)/N=C2\C=C(Nc3cccc(C(=O)O)c3)C(=O)c3ccccc32)c(C)c1 | > 60 µM (inactive)
78 | CNC(=S)N/N=C/c1ccc(-c2ccc(C(=O)O)cc2)o1 | > 60 µM (inactive)
79 | CCOC(=O)C1CCCN(C(=O)c2sc3nc(-c4ccc(OC)cc4)cn3c2C)C1 (stereo not given) | > 60 µM (inactive)
80 | CCOC(=O)c1csc(NC(=O)c2ccc(OCC)cc2)n1 | > 60 µM (inactive)
81 | COCCn1c(C)cc(C(=O)Cn2nc(C(=O)O)c3ccccc3c2=O)c1C | inactive
82 | O=C(Cc1ccccc1)N1CCN(S(=O)(=O)c2ccc([N+](=O)[O-])cc2)CC1 | > 60 µM (inactive)
83 | O=C(CN1C(=O)c2ccccc2S1(=O)=O)c1ccccc1Cl | inactive
84 | CC(=O)Oc1ccccc1/C=C/c1nc2ccccc2c(=O)o1 | > 60 µM (inactive)
85 | CC(=O)Oc1ccc(Nc2ccccc2)cc1 | > 60 µM (inactive)
86 | COC(=O)c1ccc(COc2ccc3c(C)c(C)c(=O)oc3c2)o1 | > 60 µM (inactive)
87 | Cc1nc(NC(=O)c2ccc(F)cc2)sc1C(=O)Nc1ccc2c(c1)CCC2 | > 60 µM (inactive)
88 | O=C(CN1C(=O)c2ccccc2S1(=O)=O)N1CCc2ccccc21 | > 60 µM (inactive)
89 | O=S(=O)(Cc1ccccc1)N(O)c1ccccc1 | > 60 µM (inactive)
90 | CCOC(=O)C1=C(c2ccc(OC)cc2)C(=O)c2ccccc2C1=O | > 60 µM (inactive)
91 | Cc1cc(C(=O)Cn2nc(C(=O)O)c3ccccc3c2=O)c(C)n1CC(F)(F)F | > 60 µM (inactive)
92 | CC(=O)CSc1nnc(-c2ccc3c(c2)OCO3)o1 | inactive
93 | COC(=O)c1ccc(N/C=C/C(=O)c2ccccc2)cc1 | inactive
94 | CCC(=O)Nc1ccccc1C(=O)OCC(=O)c1ccccc1 | > 60 µM (inactive)
95 | O=C(OCc1ccccn1)c1ccc(COc2ccc3ccccc3c2)o1 | > 60 µM (inactive)
96 | COC(=O)c1ccc(NC(=O)c2ccc(C)cc2)o1 | > 60 µM (inactive)
97 | CCOC(=O)c1sc(NC(=O)c2ccc(C)o2)nc1C | > 60 µM (inactive)
98 | COC(=O)C[C@]1(C(=O)OC)CN(C#N)N(c2ccc(Cl)cc2)C12c1ccccc1-c1ccccc12 | > 60 µM (inactive)
99 | COc1cc(/C=N/Nc2ccc(Cl)c(C(=O)O)c2)ccc1OC(=O)c1ccco1 | > 60 µM (inactive)
100 | COc1ccccc1NC(=O)c1coc(=O)c(Br)c1 | > 60 µM (inactive)
